# Where two headings read alike, the source gives them in different places.
# Assays:
# Assay in all cases: Glasshouse assay for herbicidal activity (pre- and post-emergence), percentage phytotoxicity
# Assay type in all cases: in vivo
# [1] = system: Alopecurus myosuroides (ALOMY); conditions: Alopecurus myosuroides
# How it was run: (§1)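 Damage was rated visually as percent phytotoxicity, 100% meaning total kill, 20 days after pre-emergence application (made one day post-sowing) or 15 days after post-emergence application (made about 12 days post-sowing). Plants were grown under 16 h light, 65% humidity, warm species 24/18° C, cool 20/16° C.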
# Avena fatua (AVEFA) = conditions: Avena fatua
# How it was run: as §1
# [2] = system: Echinochloa crus-galli (ECHCG); conditions: Echinochloa crus-galli
# How it was run: as §1
# Lolium perenne (LOLPE) = conditions: Lolium perenne
# How it was run: as §1
# [3] = post-emergence, 360 h, Rate 250 g/ha, post-emergence, assessed visually 15 DAA, 100%=total damage, 0%=no damage, read-out: Post-emergence herbicidal activity (percentage phytotoxicity) ALOMY POST
# [4] = post-emergence, 360 h, Rate 250 g/ha, post-emergence, assessed visually 15 DAA, 100%=total damage, 0%=no damage, read-out: Post-emergence herbicidal activity (percentage phytotoxicity) AVEFA POST
# [5] = post-emergence, 360 h, Rate 250 g/ha, post-emergence, assessed visually 15 DAA, 100%=total damage, 0%=no damage, read-out: Post-emergence herbicidal activity (percentage phytotoxicity) ECHCG POST
# [6] = post-emergence, 360 h, Rate 250 g/ha, post-emergence, assessed visually 15 DAA, 100%=total damage, 0%=no damage, read-out: Post-emergence herbicidal activity (percentage phytotoxicity) LOLPE POST
# [7] = post-emergence, 360 h, 250 g/ha, post-emergence, 15 DAA, visual assessment (100%=total damage, 0%=no damage), read-out: Post-emergence herbicidal activity (percentage phytotoxicity) ALOMY POST
# [8] = pre-emergence, 480 h, 250 g/ha, pre-emergence, 20 DAA, visual assessment (100%=total damage, 0%=no damage), read-out: Pre-emergence herbicidal activity (percentage phytotoxicity) ALOMY PRE
# [9] = post-emergence, 360 h, 250 g/ha, post-emergence, 15 DAA, visual assessment (100%=total damage, 0%=no damage), read-out: Post-emergence herbicidal activity (percentage phytotoxicity) AVEFA POST
# [10] = pre-emergence, 480 h, 250 g/ha, pre-emergence, 20 DAA, visual assessment (100%=total damage, 0%=no damage), read-out: Pre-emergence herbicidal activity (percentage phytotoxicity) AVEFA PRE
# [11] = post-emergence, 360 h, 250 g/ha, post-emergence, 15 DAA, visual assessment (100%=total damage, 0%=no damage), read-out: Post-emergence herbicidal activity (percentage phytotoxicity) ECHCG POST
# [12] = pre-emergence, 480 h, 250 g/ha, pre-emergence, 20 DAA, visual assessment (100%=total damage, 0%=no damage), read-out: Pre-emergence herbicidal activity (percentage phytotoxicity) ECHCG PRE
# [13] = post-emergence, 360 h, 250 g/ha, post-emergence, 15 DAA, visual assessment (100%=total damage, 0%=no damage), read-out: Post-emergence herbicidal activity (percentage phytotoxicity) LOLPE POST
# [14] = pre-emergence, 480 h, 250 g/ha, pre-emergence, 20 DAA, visual assessment (100%=total damage, 0%=no damage), read-out: Pre-emergence herbicidal activity (percentage phytotoxicity) LOLPE PRE
SMILES,"pest or weed control at 250 g/ha [1, 3] [%]",pest or weed control at 250 g/ha (Avena fatua (AVEFA); [4]) [%],"pest or weed control at 250 g/ha [2, 5] [%]",pest or weed control at 250 g/ha (Lolium perenne (LOLPE); [6]) [%],"pest or weed control at 250 g/ha [1, 7] [%]","pest or weed control at 250 g/ha [1, 8] [%]",pest or weed control at 250 g/ha (Avena fatua (AVEFA); [9]) [%],pest or weed control at 250 g/ha (Avena fatua (AVEFA); [10]) [%],"pest or weed control at 250 g/ha [2, 11] [%]","pest or weed control at 250 g/ha [2, 12] [%]",pest or weed control at 250 g/ha (Lolium perenne (LOLPE); [13]) [%],pest or weed control at 250 g/ha (Lolium perenne (LOLPE); [14]) [%],further results
Cc1cc(-c2ncc(Cl)cn2)cc(C)c1C1C(=O)CC(CC(=O)NCc2cccc(Br)c2)C1=O (centres unmarked) [Compound B339],,,,,,,,,,,,,"pest or weed control at 250 g/ha ([1]; post-emergence, 360 h, Rate 250 g/ha, post-emergence, visual assessment 15 DAA, 100%=total damage, 0%=no damage, read-out: Post-emergence herbicidal activity (percentage phytotoxicity) ALOMY POST): 100%; pest or weed control at 250 g/ha ([1]; pre-emergence, 480 h, Rate 250 g/ha, pre-emergence, visual assessment 20 DAA, 100%=total damage, 0%=no damage, read-out: Pre-emergence herbicidal activity (percentage phytotoxicity) ALOMY PRE): 40%; pest or weed control at 250 g/ha (Avena fatua (AVEFA); post-emergence, 360 h, Rate 250 g/ha, post-emergence, visual assessment 15 DAA, 100%=total damage, 0%=no damage, read-out: Post-emergence herbicidal activity (percentage phytotoxicity) AVEFA POST): 100%; pest or weed control at 250 g/ha (Avena fatua (AVEFA); pre-emergence, 480 h, Rate 250 g/ha, pre-emergence, visual assessment 20 DAA, 100%=total damage, 0%=no damage, read-out: Pre-emergence herbicidal activity (percentage phytotoxicity) AVEFA PRE): 70%; pest or weed control at 250 g/ha ([2]; post-emergence, 360 h, Rate 250 g/ha, post-emergence, visual assessment 15 DAA, 100%=total damage, 0%=no damage, read-out: Post-emergence herbicidal activity (percentage phytotoxicity) ECHCG POST): 100%; pest or weed control at 250 g/ha ([2]; pre-emergence, 480 h, Rate 250 g/ha, pre-emergence, visual assessment 20 DAA, 100%=total damage, 0%=no damage, read-out: Pre-emergence herbicidal activity (percentage phytotoxicity) ECHCG PRE): 100%; pest or weed control at 250 g/ha (Lolium perenne (LOLPE); post-emergence, 360 h, Rate 250 g/ha, post-emergence, visual assessment 15 DAA, 100%=total damage, 0%=no damage, read-out: Post-emergence herbicidal activity (percentage phytotoxicity) LOLPE POST): 100%; pest or weed control at 250 g/ha (Lolium perenne (LOLPE); pre-emergence, 480 h, Rate 250 g/ha, pre-emergence, visual assessment 20 DAA, 100%=total damage, 0%=no damage, read-out: Pre-emergence herbicidal activity (percentage phytotoxicity) LOLPE PRE): 90%"
Cc1cc(-c2ccc(Cl)cn2)cc(C)c1C1C(=O)CC(CC(=O)NCc2cccc(Cl)c2)C1=O (centres unmarked) [Compound A134],90,90,100,100,,,,,,,,,"pest or weed control at 250 g/ha ([1]; pre-emergence, 480 h, Rate 250 g/ha, pre-emergence, assessed visually 20 DAA, 100%=total damage, 0%=no damage, read-out: Pre-emergence herbicidal activity (percentage phytotoxicity) ALOMY PRE): 70%; pest or weed control at 250 g/ha (Avena fatua (AVEFA); pre-emergence, 480 h, Rate 250 g/ha, pre-emergence, assessed visually 20 DAA, 100%=total damage, 0%=no damage, read-out: Pre-emergence herbicidal activity (percentage phytotoxicity) AVEFA PRE): 90%; pest or weed control at 250 g/ha ([2]; pre-emergence, 480 h, Rate 250 g/ha, pre-emergence, assessed visually 20 DAA, 100%=total damage, 0%=no damage, read-out: Pre-emergence herbicidal activity (percentage phytotoxicity) ECHCG PRE): 90%; pest or weed control at 250 g/ha (Lolium perenne (LOLPE); pre-emergence, 480 h, Rate 250 g/ha, pre-emergence, assessed visually 20 DAA, 100%=total damage, 0%=no damage, read-out: Pre-emergence herbicidal activity (percentage phytotoxicity) LOLPE PRE): 80%"
C#CCNC(=O)CC1CC(=O)C(c2c(C)cc(-c3ncc(F)cn3)cc2C)C1=O (centres unmarked) [Compound B333],,,,,,,,,,,,,"pest or weed control at 250 g/ha ([1]; post-emergence, 360 h, POST-emergence, rate 250 g/ha, visual score 15 DAA (100%=total damage, 0%=no damage), read-out: Post-emergence herbicidal activity (percentage phytotoxicity) ALOMY POST): 100%; pest or weed control at 250 g/ha ([1]; pre-emergence, 480 h, PRE-emergence, rate 250 g/ha, visual score 20 DAA (100%=total damage, 0%=no damage), read-out: Pre-emergence herbicidal activity (percentage phytotoxicity) ALOMY PRE): 100%; pest or weed control at 250 g/ha (Avena fatua (AVEFA); post-emergence, 360 h, POST-emergence, rate 250 g/ha, visual score 15 DAA (100%=total damage, 0%=no damage), read-out: Post-emergence herbicidal activity (percentage phytotoxicity) AVEFA POST): 40%; pest or weed control at 250 g/ha (Avena fatua (AVEFA); pre-emergence, 480 h, PRE-emergence, rate 250 g/ha, visual score 20 DAA (100%=total damage, 0%=no damage), read-out: Pre-emergence herbicidal activity (percentage phytotoxicity) AVEFA PRE): 100%; pest or weed control at 250 g/ha ([2]; post-emergence, 360 h, POST-emergence, rate 250 g/ha, visual score 15 DAA (100%=total damage, 0%=no damage), read-out: Post-emergence herbicidal activity (percentage phytotoxicity) ECHCG POST): 100%; pest or weed control at 250 g/ha ([2]; pre-emergence, 480 h, PRE-emergence, rate 250 g/ha, visual score 20 DAA (100%=total damage, 0%=no damage), read-out: Pre-emergence herbicidal activity (percentage phytotoxicity) ECHCG PRE): 100%; pest or weed control at 250 g/ha (Lolium perenne (LOLPE); post-emergence, 360 h, POST-emergence, rate 250 g/ha, visual score 15 DAA (100%=total damage, 0%=no damage), read-out: Post-emergence herbicidal activity (percentage phytotoxicity) LOLPE POST): 90%; pest or weed control at 250 g/ha (Lolium perenne (LOLPE); pre-emergence, 480 h, PRE-emergence, rate 250 g/ha, visual score 20 DAA (100%=total damage, 0%=no damage), read-out: Pre-emergence herbicidal activity (percentage phytotoxicity) LOLPE PRE): 100%"
C#CCN(C)C(=O)CC1CC(=O)C(c2c(C)cc(C)cc2C)C1=O (centres unmarked) [Compound B38],,,,,70,70,90,60,90,100,90,100,
Cc1cc(-c2ncc(Cl)cc2F)cc(C)c1C1C(=O)CC(CC(=O)NC(C)C)C1=O (centres unmarked) [Compound B118],,,,,100,100,100,90,100,100,100,100,
Cc1cc(C)c(C2C(=O)CC(CC(=O)NCC#N)C2=O)c(C)c1 (centres unmarked) [Compound A83],50,10,70,30,,,,,,,,,

# — patent publication US10206394B2, “Herbicidal compounds” (Syngenta Participations AG, priority 2014, dated 2019)
